Test results published in US12486290B2, “Isoindolinone and indazole compounds for the degradation of EGFR” (C4 THERAPEUTICS, INC., priority 2019, dated 2025).

Columns and labels:
[1] = target: T1, EGFR T790M/L858R (NCI-H1975 cells) (Homo sapiens, UniProt P00533, L858R/T790M); assay: EGFR (L858R) degradation analysis, Total EGFR (L858R) HTRF, NCI-H1975 cells; format: cell-based; settings: 6 hours
T1 construct: NCI-H1975 (harboring EGFR heterozygous T790M/L858R mutations); host or cells: NCI-H1975
T1 sequence (P00533 25-1210 T790M/L858R): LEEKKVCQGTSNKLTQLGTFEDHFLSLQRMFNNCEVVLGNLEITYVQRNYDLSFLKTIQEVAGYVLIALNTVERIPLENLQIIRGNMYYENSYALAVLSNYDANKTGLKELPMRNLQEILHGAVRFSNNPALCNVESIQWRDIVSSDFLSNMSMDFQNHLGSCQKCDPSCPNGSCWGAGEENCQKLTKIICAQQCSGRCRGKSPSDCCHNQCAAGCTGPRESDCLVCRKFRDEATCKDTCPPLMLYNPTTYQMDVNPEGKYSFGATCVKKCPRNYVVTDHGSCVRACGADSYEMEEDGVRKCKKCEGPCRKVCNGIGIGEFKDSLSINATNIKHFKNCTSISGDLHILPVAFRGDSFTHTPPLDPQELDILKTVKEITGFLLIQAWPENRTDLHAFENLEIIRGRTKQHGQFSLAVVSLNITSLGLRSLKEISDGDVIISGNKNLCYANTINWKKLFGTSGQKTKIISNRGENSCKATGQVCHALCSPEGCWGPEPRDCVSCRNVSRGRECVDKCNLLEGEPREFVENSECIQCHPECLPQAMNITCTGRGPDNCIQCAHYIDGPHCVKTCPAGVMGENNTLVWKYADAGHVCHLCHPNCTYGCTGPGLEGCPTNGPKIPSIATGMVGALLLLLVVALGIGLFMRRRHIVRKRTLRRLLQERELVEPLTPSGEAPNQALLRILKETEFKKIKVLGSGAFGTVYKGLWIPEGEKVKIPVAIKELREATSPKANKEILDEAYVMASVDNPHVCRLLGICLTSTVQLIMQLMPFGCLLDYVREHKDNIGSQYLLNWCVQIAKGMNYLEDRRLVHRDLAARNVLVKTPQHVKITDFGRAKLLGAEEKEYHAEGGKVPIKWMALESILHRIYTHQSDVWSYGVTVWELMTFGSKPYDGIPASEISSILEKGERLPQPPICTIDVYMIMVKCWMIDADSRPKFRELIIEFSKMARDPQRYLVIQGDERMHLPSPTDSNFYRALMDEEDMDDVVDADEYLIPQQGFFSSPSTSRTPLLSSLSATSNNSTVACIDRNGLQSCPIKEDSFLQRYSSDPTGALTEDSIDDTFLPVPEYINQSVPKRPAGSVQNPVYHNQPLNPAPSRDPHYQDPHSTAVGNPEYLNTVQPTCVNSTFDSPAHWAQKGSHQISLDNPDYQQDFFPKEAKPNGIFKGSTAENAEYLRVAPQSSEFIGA
From the text: (§1) NCI-H1975 (harboring EGFR heterozygous T790M/L858R mutations) and NCI-H3255 (harboring EGFR heterozygous L858R mutation) were purchased from ATCC and NCI, respectively. NCI-H1975+CS (harboring EGFR heterozygous T/790M/L858R/C797S mutations) was generated using CRISPR technology to introduce the additional C797S mutation by Horizon Discovery. RPMI 1640 no-phenol red medium and fetal bovine serum (FBS) were purchased from Gibco (Grand Island, NY, USA). Cell culture flasks and 384-well microplates were acquired from VWR (Radnor, PA, USA). Total EGFR (L858R) HTRF assay kits were purchased from Cisbio (Bedford, MA, USA).
(§2) Degradation of EGFR protein containing L858R mutation was determined based on quantification of FRET signal using Total EGFR (L858R) HTRF assay kit. Test compounds were added to the 384-well plate from a top concentration of 10 μM with 11 points, half log titration in duplicates. NCI-H1975, NCI-H1975+CS or NCI-H3255 cells were added into 384-well plates at a cell density of 10000, 10000 or 1000 cells per well, respectively. The plates were kept at 37° C. with 5% CO2 for 6 hours. Cells treated in the absence of the test compound were the negative control. Positive control was set by wells containing all reagents but no cells. FRET signal was acquired on EnVision™ Multilabel Reader (PerkinElmer, Santa Clara, CA, USA).

[2] = target: T2, EGFR L858R (NCI-H3255 cells) (Homo sapiens, UniProt P00533, L858R); assay: EGFR (L858R) degradation analysis, Total EGFR (L858R) HTRF, NCI-H3255 cells; format: cell-based; settings: 6 hours
T2 construct: NCI-H3255 (harboring EGFR heterozygous L858R mutation); host or cells: NCI-H3255
T2 sequence (P00533 25-1210 L858R): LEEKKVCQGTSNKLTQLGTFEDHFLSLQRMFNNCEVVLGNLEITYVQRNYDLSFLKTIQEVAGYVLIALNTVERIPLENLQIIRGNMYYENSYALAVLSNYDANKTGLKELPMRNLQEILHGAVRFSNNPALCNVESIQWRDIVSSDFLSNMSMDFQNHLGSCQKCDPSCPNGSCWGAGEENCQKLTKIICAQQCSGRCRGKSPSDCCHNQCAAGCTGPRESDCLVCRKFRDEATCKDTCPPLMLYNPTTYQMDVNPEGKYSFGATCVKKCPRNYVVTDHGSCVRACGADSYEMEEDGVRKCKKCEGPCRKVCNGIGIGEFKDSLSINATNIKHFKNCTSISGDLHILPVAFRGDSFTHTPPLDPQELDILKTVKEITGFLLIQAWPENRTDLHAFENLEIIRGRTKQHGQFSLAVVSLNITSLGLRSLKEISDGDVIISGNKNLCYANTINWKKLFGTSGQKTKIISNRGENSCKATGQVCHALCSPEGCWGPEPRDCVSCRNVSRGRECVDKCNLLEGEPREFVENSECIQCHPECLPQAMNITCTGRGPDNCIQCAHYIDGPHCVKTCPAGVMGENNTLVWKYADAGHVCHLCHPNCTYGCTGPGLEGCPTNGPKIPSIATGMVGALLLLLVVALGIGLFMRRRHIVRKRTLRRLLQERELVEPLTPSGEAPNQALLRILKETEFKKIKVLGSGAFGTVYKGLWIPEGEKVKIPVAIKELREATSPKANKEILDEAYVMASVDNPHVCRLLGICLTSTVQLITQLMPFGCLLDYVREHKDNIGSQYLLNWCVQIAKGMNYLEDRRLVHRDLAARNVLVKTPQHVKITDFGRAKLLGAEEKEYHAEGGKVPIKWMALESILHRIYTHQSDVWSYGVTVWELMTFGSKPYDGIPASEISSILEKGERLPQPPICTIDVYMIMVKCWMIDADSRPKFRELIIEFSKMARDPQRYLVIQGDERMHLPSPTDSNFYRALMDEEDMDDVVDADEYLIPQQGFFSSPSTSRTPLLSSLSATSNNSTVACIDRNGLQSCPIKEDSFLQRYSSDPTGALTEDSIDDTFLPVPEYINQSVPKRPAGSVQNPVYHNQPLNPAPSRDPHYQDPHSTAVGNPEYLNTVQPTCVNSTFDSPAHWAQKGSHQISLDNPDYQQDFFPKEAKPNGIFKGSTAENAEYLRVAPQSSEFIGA
From the text: as §1, §2

Row | Structure (SMILES) | DC50 [1] [nM] | DC50 [2] [nM] | DC50 ([1]; class symbols) [nM]
1 | O=C1CC[C@H](Nc2ccc(C3CCN(CC(=O)N4CC5(C4)CN(c4ccc(-c6cc(F)c7c(c6)C(=O)N(C(C(=O)Nc6ccccn6)c6ncn8c6CCC8)C7)cc4)C5)CC3)c(F)c2)C(=O)N1 (stereo partly drawn) [Compound 53, 2-(6,7-dihydro-5H-pyrrolo[1,2-c]imidazol-1-yl)-2-[6-[4-[2-[2-[4-[4-[[(3S)-2,6-dioxo-3-piperidyl]amino]-2-fluoro-phenyl]-1-piperidyl]acetyl]-2,6-diazaspiro[3.3]heptan-6-yl]phenyl]-4-fluoro-1-oxo-isoindolin-2-yl]-N-(2-pyridyl)acetamide] | 64 | 37 | –
2 | O=C1CC[C@H](Nc2ccc(C3CCN(CC(=O)N4CC5(CCN(c6ccc(-c7cc(F)c8c(c7)C(=O)N(C(C(=O)Nc7nccs7)c7ncn9c7CCC9)C8)cc6)CC5)C4)CC3)c(F)c2)C(=O)N1 (stereo partly drawn) [Compound 46, 2-(6,7-dihydro-5H-pyrrolo[1,2-c]imidazol-1-yl)-2-(6-(4-(2-(2-(4-(4-(((S)-2,6-dioxopiperidin-3-yl)amino)-2-fluorophenyl)piperidin-1-yl)acetyl)-2,7-diazaspiro[3.5]nonan-7-yl)phenyl)-4-fluoro-1-oxoisoindolin-2-yl)-N-(thiazol-2-yl)acetamide] | 51 | 51 | –
3 | O=C1CCC(Nc2ccc(C3CCN(CC(=O)N4CCN(c5ccc(-c6cc(F)c7cn(C(C(=O)Nc8nccs8)c8ncn9c8CCC9)nc7c6)cn5)CC4)CC3)nc2)C(=O)N1 (centres unmarked) [Compound 66, 2-(6,7-dihydro-5H-pyrrolo[1,2-c]imidazol-1-yl)-2-[6-[6-[4-[2-[4-[5-[(2,6-dioxo-3-piperidyl)amino]-2-pyridyl]-1-piperidyl]acetyl]piperazin-1-yl]-3-pyridyl]-4-fluoro-indazol-2-yl]-N-thiazol-2-yl-acetamide] | 33 | 31 | –
4 | Cn1nc(N2CCC(=O)NC2=O)c2ccc(C3CCN(CC(=O)N4CCN(c5ccc(-c6cc(F)c7cn(C(C(=O)Nc8nccs8)c8ncn9c8CCC9)nc7c6)cn5)CC4)CC3)cc21 (centres unmarked) [Compound 67, 2-(6,7-dihydro-5H-pyrrolo[1,2-c]imidazol-1-yl)-2-[6-[6-[4-[2-[4-[3-(2,4-dioxohexahydropyrimidin-1-yl)-1-methyl-indazol-6-yl]-1-piperidyl]acetyl]piperazin-1-yl]-3-pyridyl]-4-fluoro-indazol-2-yl]-N-thiazol-2-yl-acetamide] | 27 | 50 | –
5 | Cn1nc(N2CCC(=O)NC2=O)c2ccc(C3CCN(CC(=O)N4CCN(c5ccc(-c6cc(F)c7c(c6)C(=O)N(C(C(=O)Nc6nccs6)c6ncn8c6C[C@@H](F)C8)C7)cc5)CC4)CC3)cc21 (stereo partly drawn) [Compound 45, 2-[6-[4-[4-[2-[4-[3-(2,4-dioxohexahydropyrimidin-1-yl)-1-methyl-indazol-6-yl]-1-piperidyl]acetyl]piperazin-1-yl]phenyl]-4-fluoro-1-oxo-isoindolin-2-yl]-2-[(6R)-6-fluoro-6,7-dihydro-5H-pyrrolo[1,2-c]imidazol-1-yl]-N-thiazol-2-yl-acetamide] | 14 | 16 | –
6 | O=C1CC[C@H](Nc2ccc(C3CCN(CC(=O)N4CCC(Cc5ccc(-c6cc(F)c7c(c6)C(=O)N(C(C(=O)Nc6nccs6)c6ncn8c6CCC8)C7)cc5)CC4)CC3)c(F)c2)C(=O)N1 (stereo partly drawn) [Compound 60, 2-(6,7-dihydro-5H-pyrrolo[1,2-c]imidazol-1-yl)-2-[6-[4-[[1-[2-[4-[4-[[(3S)-2,6-dioxo-3-piperidyl]amino]-2-fluoro-phenyl]-1-piperidyl]acetyl]-4-piperidyl]methyl]phenyl]-4-fluoro-1-oxo-isoindolin-2-yl]-N-thiazol-2-yl-acetamide] | 52 | 28 | –
7 | O=C1CCC(Nc2ccc(C3CCN(CC(=O)N4CCN(c5ccc(-c6cc(F)c7c(c6)C(=O)N(C(C(=O)Nc6nccs6)c6ncn8c6CCC8)C7)cc5)CC4)CC3)c(F)c2)C(=O)N1 (centres unmarked) [Compound 12, 2-(6,7-dihydro-5H-pyrrolo[1,2-c]imidazol-1-yl)-2-[6-[4-[4-[2-[4-[4-[(2,6-dioxo-3-piperidyl)amino]-2-fluoro-phenyl]-1-piperidyl]acetyl]piperazin-1-yl]phenyl]-4-fluoro-1-oxo-isoindolin-2-yl]-N-thiazol-2-yl-acetamide] | 39 | 11 | –
8 | O=C1CC[C@H](Nc2ccc(C3CCN(CC(=O)N4CCC(n5cc(-c6cc(F)c7c(c6)C(=O)N(C(C(=O)Nc6nccs6)c6ncn8c6CCC8)C7)cn5)CC4)CC3)cc2)C(=O)N1 (stereo partly drawn) [Compound 28, 2-(6,7-dihydro-5H-pyrrolo[1,2-c]imidazol-1-yl)-2-[6-[1-[1-[2-[4-[4-[[(3S)-2,6-dioxo-3-piperidyl]amino]phenyl]-1-piperidyl]acetyl]-4-piperidyl]pyrazol-4-yl]-4-fluoro-1-oxo-isoindolin-2-yl]-N-thiazol-2-yl-acetamide] | 16 | 17 | –
9 | O=C1CC[C@H](Nc2ccc(C3CCN(CC(=O)N4CCN(c5ccc(-c6cc(F)c7cn(C(C(=O)Nc8nccs8)c8ncn9c8CCC9)nc7c6)cn5)CC4)CC3)c(F)c2)C(=O)N1 (stereo partly drawn) [Compound 68, 2-(6,7-dihydro-5H-pyrrolo[1,2-c]imidazol-1-yl)-2-(6-(6-(4-(2-(4-(4-(((S)-2,6-dioxopiperidin-3-yl)amino)-2-fluorophenyl)piperidin-1-yl)acetyl)piperazin-1-yl)pyridin-3-yl)-4-fluoro-2H-indazol-2-yl)-N-(thiazol-2-yl)acetamide] | 28 | 34 | –
10 | O=C1CCC(Nc2ccc(C3CCN(C(=O)CN4CCN(c5ccc(-c6cc(F)c7c(c6)C(=O)N(C(C(=O)Nc6nccs6)c6ncn8c6CCC8)C7)cc5)CC4)CC3)cc2)C(=O)N1 (centres unmarked) [Compound 10, 2-(6,7-dihydro-5H-pyrrolo[1,2-c]imidazol-1-yl)-2-(6-(4-(4-(2-(4-(4-((2,6-dioxopiperidin-3-yl)amino)phenyl)piperidin-1-yl)-2-oxoethyl)piperazin-1-yl)phenyl)-4-fluoro-1-oxoisoindolin-2-yl)-N-(thiazol-2-yl)acetamide] | 21 | 19 | –
11 | O=C1CCC(Nc2ccc(C3CCN(C(=O)C(=O)N4CCC(Oc5ccc(-c6cc(F)c7c(c6)C(=O)N(C(C(=O)Nc6nccs6)c6ncn8c6CCC8)C7)cc5)CC4)CC3)cc2)C(=O)N1 (centres unmarked) [Compound 40, 2-(6,7-dihydro-5H-pyrrolo[1,2-c]imidazol-1-yl)-2-[6-[4-[[1-[2-[4-[4-[(2,6-dioxo-3-piperidyl)amino]phenyl]-1-piperidyl]-2-oxo-acetyl]-4-piperidyl]oxy]phenyl]-4-fluoro-1-oxo-isoindolin-2-yl]-N-thiazol-2-yl-acetamide] | 21 | 14 | –
12 | O=C1CC[C@H](Nc2ccc(C3CCN(CC(=O)N4CCC(NC(=O)c5ccc(C#Cc6cc(F)c7c(c6)C(=O)N(C(C(=O)Nc6nccs6)c6ncn8c6CCC8)C7)cn5)CC4)CC3)c(F)c2)C(=O)N1 (stereo partly drawn) [Compound 4, 5-[2-[2-[1-(6,7-dihydro-5H-pyrrolo[1,2-c]imidazol-1-yl)-2-oxo-2-(thiazol-2-ylamino)ethyl]-7-fluoro-3-oxo-isoindolin-5-yl]ethynyl]-N-[1-[2-[4-[4-[[(3S)-2,6-dioxo-3-piperidyl]amino]-2-fluoro-phenyl]-1-piperidyl]acetyl]-4-piperidyl]pyridine-2-carboxamide] | 10 | 9 | –
13 | O=C1CCC(Nc2ccc(C3CCN(CC(=O)N4CCN(Cc5ccc(-c6cc(F)c7c(c6)C(=O)N(C(C(=O)Nc6nccs6)c6ncn8c6CCC8)C7)cc5)CC4)CC3)cc2)C(=O)N1 (centres unmarked) [Compound 56, 2-(6,7-dihydro-5H-pyrrolo[1,2-c]imidazol-1-yl)-2-[6-[4-[[4-[2-[4-[4-[(2,6-dioxo-3-piperidyl)amino]phenyl]-1-piperidyl]acetyl]piperazin-1-yl]methyl]phenyl]-4-fluoro-1-oxo-isoindolin-2-yl]-N-thiazol-2-yl-acetamide] | 20 | 14 | –
14 | O=C1CC[C@H](Nc2ccc(C3CCN(CC(=O)N4CCN(c5ccc(-c6cc(F)c7c(c6)C(=O)N(C(C(=O)Nc6nccs6)c6ncn8c6CCC8)C7)cn5)CC4)CC3)c(F)c2)C(=O)N1 (stereo partly drawn) [Compound 27, 2-(6,7-dihydro-5H-pyrrolo[1,2-c]imidazol-1-yl)-2-[6-[6-[4-[2-[4-[4-[[(3S)-2,6-dioxo-3-piperidyl]amino]-2-fluoro-phenyl]-1-piperidyl]acetyl]piperazin-1-yl]-3-pyridyl]-4-fluoro-1-oxo-isoindolin-2-yl]-N-thiazol-2-yl-acetamide] | 36 | 20 | –
15 | O=C1CCC(Nc2cc(F)c(N3CCC(O)(CC(=O)N4CC5(C4)CN(c4ccc(-c6cc(F)c7c(c6)C(=O)N(C(C(=O)Nc6nccs6)c6ncn8c6CCC8)C7)cc4)C5)CC3)c(Cl)c2)C(=O)N1 (centres unmarked) [Compound 145, 2-[6-[4-[2-[2-[1-[2-chloro-4-[[2,6-dioxo-3-piperidyl]amino]-6-fluoro-phenyl]-4-hydroxy-4-piperidyl]acetyl]-2,6-diazaspiro[3.3]heptan-6-yl]phenyl]-4-fluoro-1-oxo-isoindolin-2-yl]-2-(6,7-dihydro-5H-pyrrolo[1,2-c]imidazol-1-yl)-N-thiazol-2-yl-acetamide] | – | – | 50 to 150
